# Assay results as given in patent US10421761B2, “Compounds for kinase modulation, and indications therefor” (Plexxikon Inc., priority 2013, dated 2019).
# Assay: Plasma exposure (PK analysis) in the xenograft efficacy study
# Type: in vivo
# Conditions: mouse, oral, COLO205 xenograft model, 25 mg/kg twice daily, read-out: plasma exposure, steady state AUC
# Protocol: All animal studies were conducted in accordance with the Institute for Laboratory Animal Research Guide for the Care and Use of Laboratory Animals and the USDA Animal Welfare Act. The same formulation was used for both COL0205 and B9 xenograft studies. The powder of test compound was dissolved in pure N-methyl-2-pyrrolidone (NMP). Diluent consists of PEG400: TPGS:Poloxamer 407:Water (40:5:5:50). Before gavage administration, fresh stock of NMP compound solution (or NMP for vehicle) was thoroughly mixed with the diluents to make a uniform suspension. Dosing volume is 5 μl/g. On the last day of the efficacy study, blood samples were collected at 0, 2, 4, and 8 hrs after last dosing, 2 animals/time point, for PK analysis.
structure (smiles),measurement,value
CCCS(=O)(=O)Nc1ccc(F)c(C(=O)c2c[nH]c3ncc(-c4ccc(Cl)cc4)cc23)c1F [vemurafenib],AUC,200 µg·h/mL
